Results: US8022080B2, “Small molecules with antiprotozoal activity” (Radix Pharmaceuticals Inc., priority 2009, dated 2011)
In brackets after ≈: the same amount, converted by molar mass. Where two headings read alike, the source gives them in different places.

What was measured:
[1] = tested on: P. falciparum D6 (chloroquine sensitive); experiment: In vitro anti-malarial activity, [3H]hypoxanthine uptake, D6 clone; format: cell-based, Plasmodium falciparum
Description: (§1) For in vitro toxicological studies, the following cell line was chosen: human adult liver epithelial cells (THLE-3). THLE-3 cells express phenotypic characteristics of normal adult liver epithelial cells and constitute a valuable model for pharmacotoxicological studies.
(§2) Two P. falciparum malaria parasite clones, W2 and D6, from Malaria Research and Reference Reagent Resource Center (MR4), were utilized in susceptibility testing. […] Test compounds were initially dissolved in DMSO and diluted 400 fold in RPMI 1640 culture medium supplemented with 25 mM Hepes, 32 mM NaHCO3 and 10% Albumax I (Gibco, N.Y.). These solutions were subsequently serially diluted two-fold with a Beckman Biomek® 1000 Robot (Fullerton, Calif.) over 11 different concentrations. The parasites were exposed to serial dilutions of each compound for 48 hrs and incubated at 37° C. with 5% O2, 5% CO2 and 90% N2 prior to the addition of [^3H]hypoxanthine. After a further incubation of 18 hrs, parasite DNA was harvested from each microtiter well using Packard Filtermate™ 196 Harvester (Meriden, Conn.) onto glass filters. Uptake of [^3H]hypoxanthine was measured with a Packard TopCount Liquid Scintillation Counter (Packard Instrument Co.).

[2] = tested on: P. berghei; experiment: Blood schizontocidal test in mice, oral; format: in vivo; conditions: for toxicity in mice: oral, at the highest dose tested
Description: Drugs were mixed in 0.5% hydroxycellulose 0.1% Tween 80 and administered orally b.i.d. on days 3, 4 and 5 postinfection. CD-1 male or female mice, 5 weeks of age, were infected with 5×10^4 parasitized erythrocytes of Plasmodium berghei KBG-173 mm strain. Blood films were taken on day +6 and weekly thereafter until day +60. Parasitemias were calculated and SD90 value (dose suppressing 90% of the parasites in treated groups compared with the infected non-treated controls) on day +6 postinfection. Mortality data was tabulated for 60 days at which time all mice surviving that were blood film negative were considered cured. […]

[3] = tested on: P. berghei; experiment: Suppressive blood schizontocidal activity in mice, subcutaneous single dose; format: in vivo; conditions: 72 h after infection
Description: Mice were treated with a single dose of the compound administered subcutaneously 72 h after infection. Number of cures is the number of mice surviving, out of five, 60 days postinfection.

[4] = tested on: P. falciparum W2 (chloroquine resistant); experiment: In vitro anti-malarial activity, [3H]hypoxanthine uptake, W2 clone; format: cell-based, Plasmodium falciparum
Description: as §1, §2

[5] = tested on: human adult liver epithelial cells (THLE-3); experiment: In vitro toxicity evaluation, Sulforhodamine B; format: cell-based; conditions: for IC50: Homo sapiens, read-out: IC50 THLE-3; for Selectivity IC50 (THLE-3)/IC50 (D6): ratio THLE-3 vs D6
Description: as §1
Human adult liver epithelial cells (THLE-3) was maintained in tissue culture flasks in Waymouth's medium (Gibco, N.Y.) supplemented with 10% fetal bovine serum. Toxicity tests were performed in 96-well tissue culture plates using the protein-binding dye Sulforhodamine B. Test compounds were serially diluted and added to empty wells of the 96-well plate. THLE-3 cells in their culture medium were immediately seeded into the wells. Solvent blanks (no compound) were run in each test. After 72 hours under culture conditions cells were fixed to the plate by layering 50% TCA (4° C.) over the growth media in each well to produce a final TCA concentration of 10%. After incubating for one hour at 4° C., cultures were washed five times with tap water and left air-dried. Wells were stained for 30 min. with 0.4% (w/v) SRB in 1% acetic acid and washed four times with 1% acetic acid. Cultures were left air-dried and bound dye was solubilized with 10 mM Tris base (pH 10.5) for 15 min. on a gyratory shaker at room temperature. A Spectra MAX Plus Microtiter Plate Reader (Molecular Devices, Menlo Park, Calif.) was used to measure the optical density at wavelengths of 490-530 nm.

[6] = tested on: Plasmodium berghei KBG-173; experiment: Prophylactic test in mice, oral; format: in vivo; conditions: for Mice infected and treated/Mice surviving day 60: oral; for protection from malaria: single dose of 0.5 mg/kg within 2 days pre-infection through 2 days post-infection
Description: Compounds were tested for oral prophylactic activity.
CD-I male or female mice, 5 weeks of age, were infected with 5×10^4 parasitized erythrocytes of Plasmodium berghei KBG-173 mm strain. […]

[7] = Plasmodium falciparum, D6; read-out: IC50 D6 Strain
[8] = oral dose 0.25 mg/kg/day (total dose 0.75 mg/kg)
[9] = oral dose 1.0 mg/kg/day (total dose 3.0 mg/kg)
[10] = oral dose 4.0 mg/kg/day (total dose 12 mg/kg)
[11] = oral dose 16 mg/kg/day (total dose 48 mg/kg)
[12] = oral dose 64 mg/kg/day (total dose 192 mg/kg)
[13] = subcutaneous single dose 1 mg/kg
[14] = subcutaneous single dose 2 mg/kg
[15] = subcutaneous single dose 4 mg/kg
[16] = subcutaneous single dose 8 mg/kg
[17] = subcutaneous single dose 16 mg/kg
[18] = subcutaneous single dose 32 mg/kg
[19] = subcutaneous single dose 64 mg/kg
[20] = subcutaneous single dose 128 mg/kg
[21] = Plasmodium falciparum, W2; read-out: IC50 W2 Strain
[22] = THLE3, THLE-3 cells, 72 hours, cell growth inhibition
[23] = day of treatment 1, dose 0.5 mg/kg
[24] = day of treatment 1, dose 2 mg/kg
[25] = day of treatment 1, dose 8 mg/kg
[26] = day of treatment 1, dose 32 mg/kg
[27] = day of treatment 2, dose 0.5 mg/kg
[28] = day of treatment 2, dose 2 mg/kg
[29] = day of treatment 2, dose 8 mg/kg
[30] = day of treatment 2, dose 32 mg/kg
[31] = day of treatment −1, dose 0.5 mg/kg
[32] = day of treatment −1, dose 2 mg/kg
[33] = day of treatment −1, dose 8 mg/kg
[34] = day of treatment −1, dose 32 mg/kg
[35] = day of treatment −2, dose 0.5 mg/kg
[36] = day of treatment −2, dose 2 mg/kg
[37] = day of treatment −2, dose 8 mg/kg
[38] = day of treatment −2, dose 32 mg/kg

Row | Structure (SMILES) | inhibitory activity against chloroquine sensitive malaria strain (D-6), in words ([1]; D-6 strain) | IC50 [1, 7] [ng/mL] | Mice surviving 60 days/Mice infected and treated [2, 8] | Mice surviving 60 days/Mice infected and treated [2, 9] | Mice surviving 60 days/Mice infected and treated [2, 10] | Mice surviving 60 days/Mice infected and treated [2, 11] | Mice surviving 60 days/Mice infected and treated [2, 12] | toxicity in mice [2] | Mice surviving 60 days/Mice infected and treated [3, 13] | Mice surviving 60 days/Mice infected and treated [3, 14] | Mice surviving 60 days/Mice infected and treated [3, 15] | Mice surviving 60 days/Mice infected and treated [3, 16] | Mice surviving 60 days/Mice infected and treated [3, 17] | Mice surviving 60 days/Mice infected and treated [3, 18] | Mice surviving 60 days/Mice infected and treated [3, 19] | Mice surviving 60 days/Mice infected and treated [3, 20] | IC50 [4, 21] [ng/mL] | inhibitory activity against chloroquine resistant malaria strain (W-2), in words ([4]; W-2 strain) | IC50 [5, 22] [ng/mL] | Selectivity IC50 (THLE-3)/IC50 (D6) [5] | other results
1 | CC[C@]12C=CCN(C(C)=O)C1c1cc3c(nc1C=C2)c(OC)c(OC)c1c3cc(C(=O)SC)n1C(C)=O (some centres unmarked) [Formula I] | equally potent inhibitory activity | 0.32 | 7/7 | 7/7 | 7/7 | 7/7 | 7/7 | no mice showed toxicity | 4/5 | 5/5 | 5/5 | 5/5 | 5/5 | 5/5 | 5/5 | 5/5 | 0.29 | equally potent inhibitory activity | 17100 | 5.3 × 10^4 | Mice infected and treated/Mice surviving day 60 [6, 23]: 5/5; Mice infected and treated/Mice surviving day 60 [6, 24]: 5/5; Mice infected and treated/Mice surviving day 60 [6, 25]: 5/5; Mice infected and treated/Mice surviving day 60 [6, 26]: 5/5; Mice infected and treated/Mice surviving day 60 [6, 27]: 5/5; Mice infected and treated/Mice surviving day 60 [6, 28]: 5/5; Mice infected and treated/Mice surviving day 60 [6, 29]: 5/5; Mice infected and treated/Mice surviving day 60 [6, 30]: 5/5; Mice infected and treated/Mice surviving day 60 [6, 31]: 5/5; Mice infected and treated/Mice surviving day 60 [6, 32]: 5/5; Mice infected and treated/Mice surviving day 60 [6, 33]: 5/5; Mice infected and treated/Mice surviving day 60 [6, 34]: 5/5; Mice infected and treated/Mice surviving day 60 [6, 35]: 5/5; Mice infected and treated/Mice surviving day 60 [6, 36]: 5/5; Mice infected and treated/Mice surviving day 60 [6, 37]: 5/5; Mice infected and treated/Mice surviving day 60 [6, 38]: 5/5; protection from malaria [6]: completely protected from malaria
2 | CCN(CC)CCCC(C)Nc1ccnc2cc(Cl)ccc12 (centres unmarked) [Chloroquine, reference compound] | – | – | 0/7 | 0/7 | 2/7 | 4/7 | 0/7 | – | – | – | – | – | – | – | – | – | – | – | – | 463 | IC50 ([1]; Plasmodium falciparum, D6, read-out: IC50 D6 Strain): 6.3 ng/mL (≈ 0.0197 µM); IC50 ([4]; Plasmodium falciparum, W2, read-out: IC50 W2 Strain): 108 ng/mL (≈ 0.338 µM); IC50 ([5]; THLE3, 72 h): 2920 ng/mL (≈ 9.13 µM)
3 | CC[C@@]12C=Cc3nc4c(OC)c(OC)c5c(c4cc3C1N(C(C)=O)CC1O[C@@H]12)C(=O)[C@](C)(C(=O)OC)N5C(C)=O (some centres unmarked) [Formula II] | equally potent inhibitory activity | 0.21 | 7/7 | 7/7 | 7/7 | 7/7 | 7/7 | no mice showed toxicity | 4/5 | 5/5 | 5/5 | 5/5 | 5/5 | 5/5 | 5/5 | 5/5 | 0.23 | equally potent inhibitory activity | 15400 | 7.3 × 10^4 | Mice infected and treated/Mice surviving day 60 [6, 23]: 5/5; Mice infected and treated/Mice surviving day 60 [6, 24]: 5/5; Mice infected and treated/Mice surviving day 60 [6, 25]: 5/5; Mice infected and treated/Mice surviving day 60 [6, 26]: 5/5; Mice infected and treated/Mice surviving day 60 [6, 27]: 5/5; Mice infected and treated/Mice surviving day 60 [6, 28]: 5/5; Mice infected and treated/Mice surviving day 60 [6, 29]: 5/5; Mice infected and treated/Mice surviving day 60 [6, 30]: 5/5; Mice infected and treated/Mice surviving day 60 [6, 31]: 5/5; Mice infected and treated/Mice surviving day 60 [6, 32]: 5/5; Mice infected and treated/Mice surviving day 60 [6, 33]: 5/5; Mice infected and treated/Mice surviving day 60 [6, 34]: 5/5; Mice infected and treated/Mice surviving day 60 [6, 35]: 5/5; Mice infected and treated/Mice surviving day 60 [6, 36]: 5/5; Mice infected and treated/Mice surviving day 60 [6, 37]: 5/5; Mice infected and treated/Mice surviving day 60 [6, 38]: 5/5; protection from malaria [6]: completely protected from malaria
